Measured values from patent US20260008805A1, “ADENOSINE ANALOGS FOR THE TREATMENT OF DISEASE” (BIOINTERVENE, INC., priority 2022, published 2026).
Like-named read-outs stand apart in the source and are kept apart here.

Legend:
human A3 receptors = target: T1, human A3 receptors (Homo sapiens, UniProt P0DMS8); assay: Adenosine receptor binding assay ([3H]HEMADO competition); details: Cheng-Prusoff, read-out: hA3 Ki
T1 construct: expressed in transfected cells; host or cells: HEK-293 cells, stably transfected; membrane preparation
T1 sequence (P0DMS8 1-318): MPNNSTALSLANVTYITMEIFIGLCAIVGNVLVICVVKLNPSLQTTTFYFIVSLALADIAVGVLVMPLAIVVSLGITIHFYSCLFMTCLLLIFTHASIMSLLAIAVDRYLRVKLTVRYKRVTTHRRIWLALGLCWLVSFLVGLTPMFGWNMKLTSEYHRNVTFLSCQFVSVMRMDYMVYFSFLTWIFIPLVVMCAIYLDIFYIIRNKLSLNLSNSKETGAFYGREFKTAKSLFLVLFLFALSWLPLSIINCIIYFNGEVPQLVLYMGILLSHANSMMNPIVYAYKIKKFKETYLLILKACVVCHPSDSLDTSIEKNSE
From the text: Materials and Reference Compounds: [^3H] HEMADO (obtained from (ARC, Cat: ART1456) and [3H] DPCPX (obtained from PerkinElmer Cat no. NET974250UC)). IB-MECA was obtained from Tocris (Bristol, UK) and N6-cyclopentyl adenosine (CPA) is obtained from Sigma-Alrich (Poole, UK). Cell culture media, G418 and hygromycin are obtained from Invitrogen (Paisley, UK). Fetal calf serum is obtained from Perbio Science (Cheshire, UK). All other reagents are obtained from Fisher Chemicals (Loughborough, UK).
The method followed is that of Yates L, Clark J H, Martin T J, James S, Broadley K J, Kidd E J. Radioligand binding and functional responses of ligands for human recombinant adenosine A3 receptors. Auton Autacoid Pharmacol. 2006; 26 (2): 191-200. Cells stably transfected with the human adenosine A3 or A1 receptor are grown in Dulbecco's modified Eagles medium with nutrient mixture F12 containing NaHCO3 and Glutamax. Media is supplemented with 10% fetal calf serum, geneticin (G418; 0.67 mg/mL), hygromycin (500 μg/mL) and adenosine deaminase (1 U/mL). Cells are maintained at 37° C. with 5% CO2 in air. Cells are harvested and homogenized in ice-cold Tris buffer [50 mM Tris, 150 mM NaCl, 1 mM ethylenediaminetetraacetic acid (EDTA), pH 7.4] supplemented with the peptidase inhibitors, 4-(2-aminoethyl)benzene sulfonylfluoride (1 mM) and bacitracin (0.1 mg/mL), using a Polytron homogenizer (3×10 s bursts). The homogenate is spun for 10 min (4° C.) at 500 g. The supernatant is retained and the pellet is re-suspended in the buffer, homogenized and spun as above. The combined supernatants are centrifuged for 15 min (4° C.) at 48,000 g. The resultant pellet is re-suspended in the buffer and centrifuged for a second time at 48,000 g. The membrane pellet is then suspended in Tris buffer containing no peptidase inhibitors or adenosine deaminase and stored at −80° C. at a protein concentration of 1 mg/mL.
Binding Assays: Radioligand-binding assays are performed using the adenosine A3 receptor agonist [^3H] HEMADO and the A1 receptor […] [^3H] DPCPX. Binding assays are conducted in a total volume of 100 μL containing a 50 mM Tris, pH 7.4 buffer with or without 10 mM MgCl2, 20 μg membranes and either 4.154 nM [3H] HEMADO (for the A3 receptor) or 1.6065 nM [^3H] DPCPX (for the A1 receptor). Assays are conducted at room temperature for 60 min (A1 receptor) or 120 min (A3 receptor) and terminated by the addition of 2 ml of ice-coldish buffer (50 mM Tris, pH 7.4 with or without 10 mM MgCl2) and rapid filtration over 0.03% polyethylenimine-treated Whatman GF/C filters using a Brandel cell harvester (Semat International Ltd., St Albans, UK). Filters are then ished three times with 2 ml of ice-cold buffer. The filter-bound radioactivity are counted using a Compugamma counter (LKB Wallac, Turku, Finland). Competition experiments are performed to investigate the ability of reference compounds and embodiments of the invention to inhibit [^3H] HEMADO binding. Non-specific binding are determined using the respective compound at its highest concentration.
Data Analysis: The Kd and Bmax values for binding data are calculated based upon the molar amounts of bound and free [^3H] HEMADO. […] IC50 and Ki values and Hill slopes for inhibition of the radioligand binding by the compounds of the invention are calculated from the ligand competition curves using the Excel spreadsheet and the Kd value calculated for either [^3H] HEMADO or [^3H] DPCPX. The results are expressed as a percent of control specific binding and as a percent inhibition of control specific binding obtained in the presence of the compounds of the invention. The IC50 values (concentration causing a half-maximal inhibition of control specific binding) and Hill coefficients (nH) are determined by non-linear regression analysis of the competition curves generated with mean replicate values using Hill equation curve fitting: […]

[1] = target: T2, human adenosine A3 receptor (Homo sapiens, UniProt P0DMS8); assay: Intracellular cAMP levels (inhibition of forskolin-stimulated cAMP production); format: cell-based; details: for EC50: CHO-K1 cells expressing human adenosine A3 receptor, forskolin 10 μM; for cAMP Efficacy (%): maximal response as percentage of the response produced by 100 nM IB-MECA
T2 construct: expressed in transfected cells; host or cells: CHO-K1 cells, stably transfected
T2 sequence (P0DMS8 1-318): T1 sequence (P0DMS8 1-318)
From the text: The method followed is that published in Yates L, Clark J H, Martin T J, James S, Broadley K J, Kidd E J. Radioligand binding and functional responses of ligands for human recombinant adenosine A3 receptors. Auton Autacoid Pharmacol. 2006 April; 26 (2): 191-200.
Materials and Cell Culture: Adenosine deaminase is obtained from Roche (Lewes, UK). Forskolin is obtained from Sigma-Aldrich (Poole, UK). The sources of other materials are provided above in Example 1. CHO-K1 cells stably transfected with the human adenosine A3 receptor are grown in Dulbecco's modified Eagles medium with nutrient mixture F12 containing NaHCO3 and Glutamax. Media is supplemented with 10% fetal calf serum, geneticin (G418; 0.67 mg/mL), hygromycin (500 μg/mL) and adenosine deaminase (1 U/mL). Cells are maintained at 37° C. with 5% CO2 in air.
CAMP Measurements: Intracellular cAMP production is measured directly using a non-acetylation cAMP enzyme immunoassay (Amersham Biosciences, Little Chalfont, UK). Cultured CHO cells expressing human adenosine A3 receptors are allowed to plate overnight in 96-well plates in culture medium containing adenosine deaminase. Twenty-four hours later, they are incubated with adenosine analogues or compounds of the invention (0.1 nM-1 μM) for 5 min at 37° C., followed by incubation with forskolin (10 μM) for 10 min. The cells are then lysed with 200 μL of lysis reagent 1 provided with the kit for 10 min to release intracellular CAMP. Aliquots of the supernatants are then transferred to a 96-well microtitre plate coated with donkey anti-rabbit IgG; 100-μL cAMP standards (12.5-3200 fmol/well) are also added to the microtitre plate; 100 μL of rabbit anti-cAMP antibody is added to all wells and incubated at 2-5° C. for 2 h. The antiserum is made up in lysis reagent 2, which sequesters the key component in lysis reagent 1 and ensures that CAMP is free for subsequent analysis. Then 50 μL of cAMP peroxidase conjugate is added to all wells and left to incubate for 60 min at 2-5° C. to allow competition for the antibody between the un-labelled and horse radish peroxidase (HRP)-labelled cAMP. Wells are then ished with buffer and 150 μL of enzyme substrate containing 3,3′,5,5′-tetramethylbenzidine/hydrogen peroxide in 20% (v/v) dimethylformamide is added to each well and left to incubate for 60 min on a Titramax 100 microtitre plate shaker (Heidolph Instruments, Schwabach, Germany) at room temperature for color development. The reaction is stopped by the addition of 100 μL of 1 M sulfuric acid and the optical density (OD) read at 450 nm on a spectrophotometric MRX microplate reader (Dynex Technologies, Chantilly, VA, USA).
Analyses: Each sample/standard was analyzed in duplicate and the resulting OD values averaged. The percent bound (B/B0) for each standard and sample was calculated using the following relationship:
[formula] • where B is the specific OD for standard/sample and B0 is the specific OD for the zero standard. A standard curve was generated by plotting % B/B0 as a function of the log fmol cAMP standard per well. The fmol per well value for cAMP in each sample was then read from the graph. The results are expressed as a percent of control agonist response: (measured response/control response)*100 in the presence of the compounds of the invention. Concentration-response curves for inhibition of cAMP production were constructed for all compounds of the invention and reference compounds. The EC50 values (concentration producing a half-maximal response) were determined by non-linear regression analysis of the concentration-response curves generated with mean replicate values using Hill equation curve fitting, according to the equation:
[formula] • where Y=response, A=left asymptote of the curve, D=right asymptote of the curve, C=compound concentration, and C50=EC50, and nH=slope factor. […]

[2] = Table 1, membranes of HEK-293 cells expressing human A3 receptor
[3] = Table 2, membranes of HEK-293 cells expressing human A3 receptor
[4] = Table 2, # = average between two data points

| Structure (SMILES) | Ki (human A3 receptors; [2]) [nM] | Ki (human A3 receptors; [3]) [nM] | also measured |
| --- | --- | --- | --- |
| Cn1nnc([C@@]23C[C@@H]2[C@@H](n2cnc4c5[nH]c(C(F)F)cc5c(Cl)nc42)[C@H](O)[C@@H]3O)n1 [Compound 1B] | 1.09 |  | EC50 ([1]; Table 1): 1 nM; cAMP Efficacy (%) ([1]; Table 1): 5% |
| CNC(=O)[C@@]12C[C@@H]1[C@@H](n1cnc3c4[nH]c(C)cc4c(Cl)nc31)[C@H](O)[C@@H]2O [2A*] |  | 0.543 |  |
| CC1Cc2c(Cl)nc3c(ncn3[C@H]3[C@H](O)[C@H](O)C4C[C@@H]43)c2N1 (some centres unmarked) [12A*] |  | 14.8 | EC50 [1, 4]: 11.4 nM; cAMP Efficacy (%) [1, 4]: 63.56% |
| CCNc1cc(Cl)nc2c1ncn2[C@H]1[C@H](O)[C@H](O)[C@]2(c3ncc[nH]3)C[C@H]12 [Compound 12B] | 31.2 |  | EC50 ([1]; Table 1): 5.5 nM; cAMP Efficacy (%) ([1]; Table 1): 107.37% |
| CC1CC(=O)c2c(Cl)nc3c(ncn3[C@@H]3[C@@H](O)[C@@H](O)[C@@]4(CO)C[C@@H]34)c2N1 (some centres unmarked) [13A*] |  | 24.1 |  |
| Cc1cc2c(Cl)nc3c(ncn3[C@H]3[C@H](O)[C@H](O)[C@]4(C#N)C[C@H]34)c2[nH]1 [26A*] |  | 98 | EC50 [1, 4]: 100 nM; cAMP Efficacy (%) [1, 4]: 5% |
| Cc1nc2c(Cl)nc3c(ncn3[C@H]3[C@H](O)[C@H](O)[C@]4(c5nnn(C)n5)C[C@H]34)c2[nH]1 [Compound 3B] | 1.27 |  | EC50 ([1]; Table 1): 1 nM; cAMP Efficacy (%) ([1]; Table 1): 31.72% |
| CNC(=O)[C@H]1O[C@@H](n2cnc3c4[nH]c(C)cc4c(Cl)nc32)[C@H](O)[C@@H]1O [1A*] |  | 1.79 |  |
| CNC(=O)[C@@]12C[C@@H]1[C@@H](n1cnc3c4c(c(Cl)nc31)CC(C)N4)[C@H](O)[C@@H]2O (some centres unmarked) [5A*] |  | 3.84 | EC50 [1, 4]: 0.82 nM; cAMP Efficacy (%) [1, 4]: 105.62% |
| Cc1cc2c(C#N)nc3c(ncn3[C@H]3[C@H](O)[C@H](O)C4C[C@@H]43)c2[nH]1 (some centres unmarked) [4A*] |  | 1.09 |  |
| Cc1cc2cnc3c(ncn3[C@H]3[C@H](O)[C@H](O)C4C[C@@H]43)c2[nH]1 (some centres unmarked) [14A*] |  | 2.56 | EC50 [1, 4]: 2.03 nM; cAMP Efficacy (%) [1, 4]: 87.04% |
| Cc1cc2c(Cl)nc3c(ncn3[C@H]3[C@H](O)[C@H](O)[C@]4(c5ncnn5C)C[C@H]34)c2[nH]1 [Compound 7B] | 151 |  |  |
| O[C@H]1[C@H](n2cnc3c4[nH]c(C(F)F)cc4c(Cl)nc32)[C@H]2CC2[C@H]1O (some centres unmarked) [24A*] |  | 0.916 |  |
| Cc1cc2c(Cl)nc3c(ncn3[C@H]3[C@H](O)[C@H](O)[C@]4(c5ncc[nH]5)C[C@H]34)c2[nH]1 [Compound 6B] | 6.36 |  | EC50 ([1]; Table 1): 0.14 nM; cAMP Efficacy (%) ([1]; Table 1): 105.39% |
| CNC(=O)[C@@]12C[C@@H]1[C@@H](n1cnc3c4c(c(Cl)nc31)CCC(C)N4)[C@H](O)[C@@H]2O (some centres unmarked) [10A*] |  | 2 | EC50 [1, 4]: 0.48 nM; cAMP Efficacy (%) [1, 4]: 105.25% |
| Cc1nc2c(Cl)nc3c(ncn3[C@H]3[C@H](O)[C@H](O)C4C[C@@H]43)c2[nH]1 (some centres unmarked) [22A*] |  | 1.8 |  |
| O[C@H]1[C@H](n2cnc3c(NCc4cc(Cl)ccc4Cl)cc(Cl)nc32)[C@H]2C[C@@]2(c2ncc[nH]2)[C@H]1O [Compound 9B] | 38.6 |  | EC50 ([1]; Table 1): 4.61 nM; cAMP Efficacy (%) ([1]; Table 1): 103.89% |
| CCOc1nc2c(ncn2[C@H]2[C@H](O)[C@H](O)C3C[C@@H]32)c2[nH]c(C)cc12 (some centres unmarked) [21A*] |  | 36 |  |
| CC1Cc2c(Cl)nc3c(ncn3[C@H]3[C@H](O)[C@H](O)[C@]4(CO)C[C@H]34)c2N1 (some centres unmarked) [3A*] |  | 65.7 |  |
| CNC(=O)[C@@]12C[C@@H]1[C@@H](n1cnc3c4c(c(Cl)nc31)C(=O)CC(C)N4)[C@H](O)[C@@H]2O (some centres unmarked) [11A*] |  | 3.36 |  |
| CCNc1cc(Cl)nc2c1ncn2[C@H]1[C@H](O)[C@H](O)[C@]2(c3nnnn3C)C[C@H]12 [Compound 11B] | > 806 |  |  |
